Measured values published in patent US11420962B2, “Indene derivatives useful in treating pain and inflammation” (TARO PHARMACEUTICALS INC., priority 2018, dated 2022).

What was measured:
Mice (male, C57Bl/6) = assay: Bleomycin lung fibrosis; type: in vivo
Source text: Mice (male, C57BL/6) were randomized into treatment groups and fibrosis was induced by intratracheal administration of bleomycin. Treatment with representative compounds of the invention (i.e., test compounds) or reference standard (pirfenidone) was initiated on Day −1 and administered daily unto Day 7 or Day 21. For groups undergoing bronchoalveolar lavage (BAL), the trachea was cannulated and infused with ice cold Hank's Balanced Salt Solution (HBSS, pH 7.2). The collected lavage fluid was analyzed for cell numbers (total and differential counts) and levels of soluble TGFβ and collagen. For other groups, the lungs were either snap-frozen or formalin-fixed for further analyses.

rats (male, Wistar) = assay: Rat monosodium iodoacetate-induced osteoarthritis; type: in vivo; details: for reduction difference in weight bearing as compared to the vehicle: PO, QD
Experimental: Representative compounds of the invention (i.e., test compounds) were administered to rats (male, Wistar) PO, QD, at 3 or 30 mg/kg, starting on Day 0 through to Day 21 of the study. Osteoarthritis was modeled by intra-articular injection of 3 mg of monosodium iodoacetate (MIA) in the right knee. Knee swelling, paw withdrawal threshold (mechanical allodynia) and the difference in weight bearing were measured on Day 0 (pre-induction) and on Days 3, 7, 14 and 21 post-MIA injection. Tramadol was used as a reference standard.

[1] = system: Rats (female, Sprague-Dawley); assay: Rat ketamine cystitis (visceral pain); type: in vivo
Experimental: Rats (female, Sprague-Dawley) received daily intraperitoneal injections of saline (sham control) or ketamine (50 mg/kg) for 14 days. […] Referred mechanical sensitivity was assessed on Day 7 and Day 14 by application of a series of von Frey filaments to the lower abdomen and the nociceptive threshold was scored.

[2] = system: Rats (male, Sprague-Dawley); assay: TNBS colitis assay in rats; type: in vivo; details: 30 mg/kg dose, PO, QD for 7 days
Experimental: TNBS Colitis Assay of Representative Compounds in Rats Rats (male, Sprague-Dawley) were anaesthetized and a solution of TNBS (48 mg/kg) in ethanol, was instilled intra-rectally to induce colitis, 1 h after oral dosing of representative compounds of the invention (i.e., test compounds). Test compounds were dosed PO, QD for 7 days, using prednisolone as a reference standard. […] On Day 7, rats were euthanized and the colon was evaluated for length, weight, wall thickness, ulcer number and length and for the presence of adhesions and strictures. A colonic score was calculated based on the severity of the colonic parameters.

T cells = assay: T cell proliferation (anti-CD3/anti-CD28 dynabeads, CCK-8); type: cell-based, mice; details: Table 4, mouse T cells, 72 hours after dynabeads, read-out: Scoring (IC50, cell proliferation)
Experimental: Spleens were obtained from six male, CD-1 outbred mice, approximately 8 weeks old. Cells were harvested under sterile conditions by forcing each spleen though a cell filter (pore size 100 μm diameter). A homogenous cell suspension was obtained by washing the cells in fresh medium and passing cells through a smaller cell filter (pore size 70 μm).
Untouched T cells were isolated using the Pan T cell isolation kit (Miltenyi Biotech). Briefly, cells were counted and incubated with the required volume of antibody cocktail for 5 minutes at 4° C. before addition of microbeads and incubation for 10 minutes at 4° C. Labeled cells were retained in a magnetic column while unlabeled cells (T cells) passed through the column and were retained for use in the assay.
Cell viability was assessed by Trypan Blue exclusion and found to be >99% prior to transfer to plates. Isolated T cells were seeded out in 96 well plates at a density of 50,000 cells per well and allowed to incubate for 60 minutes in a humidified cell culture (37° C., 5% CO2) incubator prior to compound treatment. The media used for this assay (TexMACS, Miltenyi Biotech) was previously optimized for proliferation of T cells in serum free conditions.
Representative compounds of the invention (i.e., test compounds) were prepared as 30 mM stocks in 100% DMSO. Test compounds were initially diluted in media to yield 3 mM stocks before an additional 1:10 dilution in media was performed to yield working stocks of 300 μM (1% DMSO). Subsequent dilutions were performed in media (supplemented with 1% DMSO). When added to the assay plates (1:10 dilution), these yielded final concentrations in the assay plates of in 0.1% DMSO. The reference compound, Cyclosporin A, was prepared in an identical manner as above.
Unstimulated and Stimulated Control wells received an identical volume of TexMACS media/1% DMSO at this time, resulting in a final concentration of 0.1% DMSO across the plate. Mouse anti-CD3/anti-CD28 dynabeads were prepared (following the manufacturers' instructions) in TexMACS media and added to appropriate wells to achieve a final concentration of 1 bead per cell. Unstimulated Control wells then received an identical volume of TexMACS. Plates were centrifuged 72 hours after addition of dynabeads, (300×g for 3 minutes) to pellet the cells and 60% of the supernatant was removed to a fresh plate for analysis by ELISA. After removal of 60% of the supernatant for subsequent ELISA, cell proliferation was assessed using the CCK-8 assay.
Average response by the standard compound, cyclosporin A, was 1 uM.

Human DRG = assay: Human dorsal root ganglion (DRG) excitability response; type: cell-based; details: Table 6; Biological Example 3, human DRG; read-out: Scoring (IC50)
Experimental: Human DRGs are transferred into a dissection vessel containing a cold (4° C.), fresh proprietary dissection solution. DRGs are maintained completely submerged in dissection solution followed by dissection by an appropriate method.
Cells are plated into a 96 well plate. Calcium dye (Fluo 8-AM) is loaded in each well for a period of 20 to 25 min, maintaining temperature at ambient. The baseline excitability profile (ability of firing action potentials) of the cells is assessed at both low and high threshold stimulations using optical EFS. Following baseline profiling, cells are subjected to test compounds.
Representative compounds of the invention (i.e., test compounds) are added to cells and the cells are stimulated (using EFS) to induce action potentials at regular intervals, according to the parameters outlined in Table 5. Four concentrations of each compound are utilized and directly injected into separate wells to allow for determination of a dose response (IC50). At the end of the protocol, the nociceptor positive control compound (capsaicin) is perfused into the cells at 200 nM and signal recorded. […]
Recordings are performed in stream mode at 100 Hz for the EFS portion of the above protocol and in time lapse model at 0.2 Hz for the final step utilizing capsaicin. For each concentration tested, the number of cells blocked vs baseline will be counted at different thresholds. […]

C=C1CC[C@H]2[C@H](CN)[C@@H]([C@@]3(C)Cc4cn[nH]c4C[C@@H]3CO)CC[C@]12C [Ia-1, ((5R,6S)-5-((3aS,4R,5S,7aS)-4-(aminomethyl)-7a-methyl-1-methyleneoctahydro-1H-inden-5-yl)-5-methyl-4,5,6,7-tetrahydro-1H-indazol-6-yl)methanol]
reduction in BAL macrophages as compared to the vehicle (Mice (male, C57Bl/6); Day 7, 3.0 mg/kg dose): 41% | reduction in BAL macrophages as compared to the vehicle (Mice (male, C57Bl/6); Day 7, 30 mg/kg dose): 35% | reduction in fibrosis (Mice (male, C57Bl/6); Day 14, 30 mg/kg dose (first mention)): 31% | reduction in fibrosis (Mice (male, C57Bl/6); Day 14, 30 mg/kg dose (second mention)): 34% | reduction difference in weight bearing as compared to the vehicle (rats (male, Wistar); 3.0 mg/kg dose): 50% | reduction difference in weight bearing as compared to the vehicle (rats (male, Wistar); 30 mg/kg): 57% | reduction in knee diameter as compared to the vehicle (rats (male, Wistar); Day 3, 3.0 mg/kg): 23% | reduction in knee diameter as compared to the vehicle (rats (male, Wistar); Day 3, 30 mg/kg): 43% | increase in the nociceptive threshold (relative to unchallenged) ([1]; 1.0 mg/kg dose, PO, QD): 61% | increase in the nociceptive threshold (relative to unchallenged) ([1]; 3.0 mg/kg dose, PO, QD): 69% | increase in the nociceptive threshold (relative to unchallenged) ([1]; 10 mg/kg dose): 85% | inhibition of the colonic score [2]: 36% | IC50 (T cells): 6 to 15 µM | IC50 (Human DRG): < 2 µM
